Data reported in patent US20220227737A1, “NOVEL OXALYL PIPERAZINES ACTIVE AGAINST THE HEPATITIS B VIRUS (HBV)” (AiCuris GmbH & Co. KG, priority 2019, published 2022).

Molecular target: T1, C-terminal truncated core protein (HBV core dimer, BODIPY-FL labelled) (UniProt P03146)
T1 construct: fused on or other part: One added cysteine at position 150, labelled with BODIPY-FL maleimide; The C-terminal arginine-rich domain is absent
Assay: Biochemical capsid assembly assay (fluorescence quenching)
Experimental: Biochemical Capsid Assembly Assay
The screening for assembly effector activity was done based on a fluorescence quenching assay published by Zlotnick et al. (2007). The C-terminal truncated core protein containing 149 amino acids of the N-terminal assembly domain fused to a unique cysteine residue at position 150 and was expressed in E. coli using the pET expression system (Merck Chemicals, Darmstadt). Purification of core dimer protein was performed using a sequence of size exclusion chromatography steps. In brief, the cell pellet from 1 L BL21 (DE3) Rosetta2 culture expressing the coding sequence of core protein cloned NdeI/XhoI into expression plasmid pET21b was treated for 1 h on ice with a native lysis buffer (Qproteome Bacterial Protein Prep Kit; Qiagen, Hilden). After a centrifugation step the supernatant was precipitated during 2 h stirring on ice with 0.23 g/ml of solid ammonium sulfate. Following further centrifugation the resulting pellet was resolved in buffer A (100 mM Tris, pH 7.5; 100 mM NaCl; 2 mM DTT) and was subsequently loaded onto a buffer A equilibrated CaptoCore 700 column (GE HealthCare, Frankfurt). The column flow through containing the assembled HBV capsid was dialyzed against buffer N (50 mM NaHCO3 pH 9.6; 5 mM DTT) before urea was added to a final concentration of 3M to dissociate the capsid into core dimers for 1.5 h on ice. The protein solution was then loaded onto a 1 L Sephacryl 5300 column. After elution with buffer N core dimer containing fractions were identified by SDS-PAGE and subsequently pooled and dialyzed against 50 mM HEPES pH 7.5; 5 mM DTT. To improve the assembly capacity of the purified core dimers a second round of assembly and disassembly starting with the addition of 5 M NaCl and including the size exclusion chromatography steps described above was performed. From the last chromatography step core dimer containing fractions were pooled and stored in aliquots at concentrations between 1.5 to 2.0 mg/ml at −80° C.
Immediately before labelling the core protein was reduced by adding freshly prepared DTT in a final concentration of 20 mM. After 40 min incubation on ice storage buffer and DTT was removed using a Sephadex G-25 column (GE HealthCare, Frankfurt) and 50 mM HEPES, pH 7.5. For labelling 1.6 mg/ml core protein was incubated at 4° C. and darkness overnight with BODIPY-FL maleimide (Invitrogen, Karlsruhe) in a final concentration of 1 mM. After labelling the free dye was removed by an additional desalting step using a Sephadex G-25 column. Labelled core dimers were stored in aliquots at 4° C. In the dimeric state the fluorescence signal of the labelled core protein is high and is quenched during the assembly of the core dimers to high molecular capsid structures. The screening assay was performed in black 384 well microtiter plates in a total assay volume of 10 μl using 50 mM HEPES pH 7.5 and 1.0 to 2.0 μM labelled core protein. Each screening compound was added in 8 different concentrations using a 0.5 log-unit serial dilution starting at a final concentration of 100 μM, 31.6 μM or 10 μM, In any case the DMSO concentration over the entire microtiter plate was 0.5%. The assembly reaction was started by the injection of NaCl to a final concentration of […] which induces the assembly process to approximately 25% of the maximal quenched signal. […] after starting the reaction the fluorescence signal was measured using a Clariostar plate reader (BMG Labtech, Ortenberg) with an excitation of 477 nm and an emission of 525 nm. As 100% and 0% assembly control HEPES buffer containing 2.5 M and 0 M NaCl was used. Experiments were performed thrice in triplicates. EC50 values were calculated by non-linear regression analysis using the Graph Pad Prism 6 software (GraphPad Software, La Jolla, USA).

T1 sequence (P03146 whole entry, the tested form may be a part): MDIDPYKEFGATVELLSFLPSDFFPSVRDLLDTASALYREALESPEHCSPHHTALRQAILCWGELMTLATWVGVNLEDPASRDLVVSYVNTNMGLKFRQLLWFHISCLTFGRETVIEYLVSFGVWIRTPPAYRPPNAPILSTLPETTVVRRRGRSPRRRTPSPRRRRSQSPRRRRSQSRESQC

Row | Compound | IC50 [µM]
1 | CC(C)(CC(F)(F)F)NC(=O)C(=O)N1CCN(C(=O)c2cc3ccccc3[nH]2)CC1 [Example 69, 2-[4-(1H-indole-2-carbonyl)piperazin-1-yl]-2-oxo-N-(4,4,4-trifluoro-2-methylbutan-2-yl)acetamide] | < 5
2 | C[C@H](NC(=O)C(=O)N1CCN(C(=O)c2cc3ccccc3[nH]2)CC1)C(F)(F)F [Example 37, 2-[4-(1H-indole-2-carbonyl)piperazin-1-yl]-2-oxo-N-[(2S)-1,1,1-trifluoropropan-2-yl]acetamide] | < 5
3 | CC1(NC(=O)C(=O)N2CCN(C(=O)c3cc4ccccc4[nH]3)CC2)CCCCCC1 [Example 66, 2-[4-(1H-indole-2-carbonyl)piperazin-1-yl]-N-(1-methylcycloheptyl)-2-oxoacetamide] | 5 to 10
4 | C[C@H](O)CNC(=O)C(=O)N1CCN(C(=O)c2cc3ccccc3[nH]2)CC1 [Example 36, (S)-2-(4-(1H-indole-2-carbonyl)piperazin-1-yl)-N-(2-hydroxypropyl)-2-oxoacetamide] | < 5
5 | O=C1CC2(CC(CNC(=O)C(=O)N3CCN(C(=O)c4cc5ccccc5[nH]4)CC3)C2)N1 (centres unmarked) [Example 19, 2-(4-(1H-indole-2-carbonyl)piperazin-1-yl)-2-oxo-N-((2-oxo-1-azaspiro[3.3]heptan-6-yl)methyl)acetamide] | < 100
6 | O=C(N[C@H]1C[C@H](O)C1)C(=O)N1CCN(C(=O)c2cc3ccccc3[nH]2)CC1 [Example 17, 2-(4-(1H-indole-2-carbonyl)piperazin-1-yl)-N-((1 r,3 r)-3-hydroxycyclobutyl)-2-oxoacetamide] | 5 to 10
7 | COCC1(NC(=O)C(=O)N2CCN(C(=O)c3cc4ccccc4[nH]3)CC2)CCC1 [Example 41, 2-(4-(1H-indole-2-carbonyl)piperazin-1-yl)-N-(1-(methoxymethyl)cyclobutyl)-2-oxoacetamide] | < 5
8 | CC1(NC(=O)C(=O)N2CCN(C(=O)c3cc4ccccc4[nH]3)CC2)CCOCC1 [Example 39, 2-(4-(1H-indole-2-carbonyl)piperazin-1-yl)-N-(4-methyltetrahydro-2H-pyran-4-yl)-2-oxoacetamide] | < 5
9 | Cc1cccc2[nH]c(C(=O)N3CCN(C(=O)C(=O)NC(C)(C)C)CC3)cc12 [Example 44, N-(tert-butyl)-2-(4-(4-methyl-1H-indole-2-carbonyl)piperazin-1-yl)-2-oxoacetamide] | < 5
10 | CC(C)(C)NC(=O)C(=O)N1CCCN(C(=O)c2cc3ccccc3[nH]2)CC1 [Example 51, 2-(4-(1H-indole-2-carbonyl)-1,4-diazepan-1-yl)-N-(tert-butyl)-2-oxoacetamide] | < 100
11 | CCCCNC(=O)C(=O)N1CCN(C(=O)c2cc3cc(F)ccc3[nH]2)CC1 [Example 27, N-butyl-2-(4-(5-fluoro-1H-indole-2-carbonyl)piperazin-1-yl)-2-oxoacetamide] | < 5
12 | O=C(NC1CCOCC1)C(=O)N1CCN(C(=O)c2cc3ccccc3[nH]2)CC1 [Example 40, 2-(4-(1H-indole-2-carbonyl)piperazin-1-yl)-2-oxo-N-(tetrahydro-2H-pyran-4-yl)acetamide] | 5 to 10
13 | Cc1c(F)ccc2[nH]c(C(=O)N3CCN(C(=O)C(=O)NC(C)(C)C)CC3)cc12 [Example 46, N-(tert-butyl)-2-(4-(5-fluoro-4-methyl-1H-indole-2-carbonyl)piperazin-1-yl)-2-oxoacetamide] | 5 to 10
14 | CC(C)(C)NC(=O)C(=O)N1CCN(C(=O)c2cc3cc(F)c(Cl)cc3[nH]2)CC1 [Example 45, N-(tert-butyl)-2-(4-(6-chloro-5-fluoro-1H-indole-2-carbonyl)piperazin-1-yl)-2-oxoacetamide] | 5 to 10
15 | NC(=O)C1(CNC(=O)C(=O)N2CCN(C(=O)c3cc4ccccc4[nH]3)CC2)CC(F)(F)C1 [Example 21, 1-((2-(4-(1H-indole-2-carbonyl)piperazin-1-yl)-2-oxoacetamido)methyl)-3,3-difluorocyclobutane-1-carboxamide] | 5 to 10
16 | CCC(C)(C)NC(=O)C(=O)N1CCN(C(=O)c2cc3ccccc3[nH]2)CC1 [Example 67, 2-[4-(1H-indole-2-carbonyl)piperazin-1-yl]-N-(2-methylbutan-2-yl)-2-oxoacetamide] | < 5
17 | O=C1CCC(CNC(=O)C(=O)N2CCN(C(=O)c3cc4ccccc4[nH]3)CC2)N1 (centres unmarked) [Example 14, 2-[4-(1H-indole-2-carbonyl)piperazin-1-yl]-2-oxo-N-[(5-oxopyrrolidin-2-yl)methyl]acetamide] | < 100
18 | CC(C)(C)NC(=O)C(=O)N1CCN(C(=O)c2cc3c(F)cc(F)cc3[nH]2)CC1 [Example 43, N-(tert-butyl)-2-(4-(4,6-difluoro-1H-indole-2-carbonyl)piperazin-1-yl)-2-oxoacetamide] | < 5
19 | CNC(=O)C1(CNC(=O)C(=O)N2CCN(C(=O)c3cc4ccccc4[nH]3)CC2)CCC1 [Example 22, 1-((2-(4-(1H-indole-2-carbonyl)piperazin-1-yl)-2-oxoacetamido)methyl)-N-methylcyclobutane-1-carboxamide] | < 100
20 | O=C(NC1CCCCCC1)C(=O)N1CCN(C(=O)c2cc3ccccc3[nH]2)CC1 [Example 70, N-cycloheptyl-2-[4-(1H-indole-2-carbonyl)piperazin-1-yl]-2-oxoacetamide] | 5 to 10
21 | C[C@@H]1CN(C(=O)C(=O)NC(C)(C)C)[C@@H](C)CN1C(=O)c1cc2ccccc2[nH]1 [Example 48, N-tert-butyl-2-[(2S,5R)-4-(1H-indole-2-carbonyl)-2,5-dimethylpiperazin-1-yl]-2-oxoacetamide] | < 5
22 | C[C@@H](NC(=O)C(=O)N1CCN(C(=O)c2cc3ccccc3[nH]2)CC1)C(F)(F)F [Example 38, (R)-2-(4-(1H-indole-2-carbonyl)piperazin-1-yl)-2-oxo-N-(1,1,1-trifluoropropan-2-yl)acetamide] | < 5
23 | O=C(N[C@H]1CC[C@@H](O)CC1)C(=O)N1CCN(C(=O)c2cc3ccccc3[nH]2)CC1 [Example 16, 2-(4-(1H-indole-2-carbonyl)piperazin-1-yl)-N-((1s,4s)-4-hydroxycyclohexyl)-2-oxoacetamide] | 5 to 10
24 | C[C@@H]1CN(C(=O)C(=O)NC(C)(C)C)CCN1C(=O)c1cc2ccccc2[nH]1 [Example 50, (R)-2-(4-(1H-indole-2-carbonyl)-3-methylpiperazin-1-yl)-N-(tert-butyl)-2-oxoacetamide] | < 5
25 | O=C(NCC1(O)CC1)C(=O)N1CCN(C(=O)c2cc3ccccc3[nH]2)CC1 [Example 18, 2-(4-(1H-indole-2-carbonyl)piperazin-1-yl)-N-((1-hydroxycyclopropyl)methyl)-2-oxoacetamide] | < 100
26 | O=C(N[C@H]1CC[C@H](O)CC1)C(=O)N1CCN(C(=O)c2cc3ccccc3[nH]2)CC1 [Example 33, 2-(4-(1H-indole-2-carbonyl)piperazin-1-yl)-N-((1r,4r)-4-hydroxycyclohexyl)-2-oxoacetamide] | < 100
27 | CC(C)(C)NC(=O)C(=O)N1CCN(C(=O)c2cc3cc(F)c(F)cc3[nH]2)CC1 [Example 42, N-tert-butyl-2-[4-(5,6-difluoro-1H-indole-2-carbonyl)piperazin-1-yl]-2-oxoacetamide] | 5 to 10
28 | CC(C)(CCCO)NC(=O)C(=O)N1CCN(C(=O)c2cc3ccccc3[nH]2)CC1 [Example 68, N-(5-hydroxy-2-methylpentan-2-yl)-2-[4-(1H-indole-2-carbonyl)piperazin-1-yl]-2-oxoacetamide] | < 5
29 | NC(=O)C1(CNC(=O)C(=O)N2CCN(C(=O)c3cc4ccccc4[nH]3)CC2)CCC1 [Example 20, 1-((2-(4-(1H-indole-2-carbonyl)piperazin-1-yl)-2-oxoacetamido)methyl)cyclobutane-1-carboxamide] | < 100
